Results as given in publication PMC10882719 (Frontiers in Neuroscience, 2024).
Where two headings read alike, the source gives them in different places.

What was measured:
Type in all cases: cell-based
[1] = molecular target: T1, 168 GPCRs (Homo sapiens, UniProt P43115); details: PTGER3
T1 construct: host or cells: PathHunter cell lines
T1 sequence (P43115 1-390): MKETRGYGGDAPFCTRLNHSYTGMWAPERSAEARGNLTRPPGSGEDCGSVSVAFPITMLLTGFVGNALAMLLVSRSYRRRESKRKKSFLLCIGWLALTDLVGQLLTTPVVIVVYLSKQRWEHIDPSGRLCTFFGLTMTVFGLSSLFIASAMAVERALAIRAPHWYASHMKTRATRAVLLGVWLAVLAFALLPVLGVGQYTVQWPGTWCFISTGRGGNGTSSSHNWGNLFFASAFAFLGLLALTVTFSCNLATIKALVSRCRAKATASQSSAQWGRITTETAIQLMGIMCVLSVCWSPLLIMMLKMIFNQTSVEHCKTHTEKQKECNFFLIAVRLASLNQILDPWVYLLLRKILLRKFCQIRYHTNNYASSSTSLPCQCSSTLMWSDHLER
Description: (§1) Studies were performed at Eurofins DiscoverX Corporation (Fremont, CA) using the GPCRmax assay according to the manufacturer’s protocols. […] Activity greater than 30% typically indicates agonist activity and inhibition greater than 50% indicates antagonist activity. This assay uses enzyme fragment complementation with […] as the functional reporter. When a GPCR is activated, […] is recruited and the reporter is detectable. GPCRmax offers a high-throughput screen of 168 GPCRs for agonist or antagonist activity. Briefly, PathHunter cell lines were propagated, seeded into 384-well microplates and incubated at 37°C. […] Microplates were read following signal generation with a PerkinElmer Envision™ instrument for chemiluminescent signal detection. Compound activity was analyzed using CBIS data analysis suite (ChemInnovation, CA) to determine raw values (RLU). For agonist mode assay, percentage activity was calculated using the following formula: % Activity =100% × (mean RLU of test sample - mean RLU of vehicle control) / (mean MAX control ligand - mean RLU of vehicle control). For antagonist mode assay, percentage inhibition was calculated using the following formula: % Inhibition =100% × (1 - (mean RLU of test sample - mean RLU of vehicle control) / (mean RLU of EC80 control - mean RLU of vehicle control)).

[2] = molecular target: T2, 168 GPCRs (Homo sapiens, UniProt P30988)
T2 construct: host or cells: PathHunter cell lines
T2 sequence (P30988 25-474): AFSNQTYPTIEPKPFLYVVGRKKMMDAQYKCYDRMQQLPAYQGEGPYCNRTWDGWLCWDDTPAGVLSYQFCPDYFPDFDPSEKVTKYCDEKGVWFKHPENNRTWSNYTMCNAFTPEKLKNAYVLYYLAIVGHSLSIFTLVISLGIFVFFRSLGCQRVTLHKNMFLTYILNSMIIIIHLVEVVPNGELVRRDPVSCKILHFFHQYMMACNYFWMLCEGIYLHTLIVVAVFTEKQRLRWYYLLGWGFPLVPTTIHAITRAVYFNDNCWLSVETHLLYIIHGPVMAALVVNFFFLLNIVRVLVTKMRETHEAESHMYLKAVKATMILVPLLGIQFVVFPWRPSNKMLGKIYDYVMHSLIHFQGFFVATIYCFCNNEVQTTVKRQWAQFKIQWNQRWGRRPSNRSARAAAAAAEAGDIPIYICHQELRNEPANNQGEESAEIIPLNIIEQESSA
Description: as §1

[3] = molecular target: T3, 168 GPCRs (Homo sapiens, UniProt P32745); details: SSTR3
T3 construct: host or cells: PathHunter cell lines
Description: as §1

[4] = molecular target: T4, 168 GPCRs (Homo sapiens, UniProt P32245); details: MC4R
T4 construct: host or cells: PathHunter cell lines
Description: as §1

[5] = molecular target: T5, 168 GPCRs (Homo sapiens, UniProt P48145)
T5 construct: host or cells: PathHunter cell lines
T5 sequence (P48145 1-328): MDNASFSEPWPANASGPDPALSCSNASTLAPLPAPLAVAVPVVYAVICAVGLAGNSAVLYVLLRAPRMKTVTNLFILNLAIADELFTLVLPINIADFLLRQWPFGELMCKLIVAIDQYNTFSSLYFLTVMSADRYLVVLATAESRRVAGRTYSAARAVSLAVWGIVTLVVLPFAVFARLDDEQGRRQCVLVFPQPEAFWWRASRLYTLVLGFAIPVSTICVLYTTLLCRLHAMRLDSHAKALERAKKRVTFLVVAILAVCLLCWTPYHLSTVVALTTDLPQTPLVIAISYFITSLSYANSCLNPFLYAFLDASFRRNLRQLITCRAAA
Description: as §1

[6] = molecular target: T6, 168 GPCRs (Homo sapiens, UniProt P51686)
T6 construct: host or cells: PathHunter cell lines
T6 sequence (P51686 1-369): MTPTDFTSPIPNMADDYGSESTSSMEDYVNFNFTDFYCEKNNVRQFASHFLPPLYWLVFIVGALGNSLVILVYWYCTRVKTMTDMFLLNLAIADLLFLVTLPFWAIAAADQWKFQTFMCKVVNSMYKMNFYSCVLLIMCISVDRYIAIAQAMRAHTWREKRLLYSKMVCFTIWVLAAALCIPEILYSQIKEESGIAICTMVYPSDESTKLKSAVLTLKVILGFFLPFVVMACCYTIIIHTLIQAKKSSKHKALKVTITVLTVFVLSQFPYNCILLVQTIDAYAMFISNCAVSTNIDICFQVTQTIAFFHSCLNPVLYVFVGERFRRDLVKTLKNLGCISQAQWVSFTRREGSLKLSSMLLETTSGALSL
Description: as §1

T4 sequence (P32245 whole entry): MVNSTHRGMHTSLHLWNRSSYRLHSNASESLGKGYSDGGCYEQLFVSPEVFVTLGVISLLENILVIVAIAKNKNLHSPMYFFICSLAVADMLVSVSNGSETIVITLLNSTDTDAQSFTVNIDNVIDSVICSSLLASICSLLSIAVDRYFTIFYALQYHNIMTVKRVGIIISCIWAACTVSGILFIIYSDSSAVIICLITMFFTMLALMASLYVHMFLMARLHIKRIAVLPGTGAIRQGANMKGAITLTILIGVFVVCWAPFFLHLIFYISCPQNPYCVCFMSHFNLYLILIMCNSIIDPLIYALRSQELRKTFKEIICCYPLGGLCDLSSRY
T3 sequence (P32745 whole entry): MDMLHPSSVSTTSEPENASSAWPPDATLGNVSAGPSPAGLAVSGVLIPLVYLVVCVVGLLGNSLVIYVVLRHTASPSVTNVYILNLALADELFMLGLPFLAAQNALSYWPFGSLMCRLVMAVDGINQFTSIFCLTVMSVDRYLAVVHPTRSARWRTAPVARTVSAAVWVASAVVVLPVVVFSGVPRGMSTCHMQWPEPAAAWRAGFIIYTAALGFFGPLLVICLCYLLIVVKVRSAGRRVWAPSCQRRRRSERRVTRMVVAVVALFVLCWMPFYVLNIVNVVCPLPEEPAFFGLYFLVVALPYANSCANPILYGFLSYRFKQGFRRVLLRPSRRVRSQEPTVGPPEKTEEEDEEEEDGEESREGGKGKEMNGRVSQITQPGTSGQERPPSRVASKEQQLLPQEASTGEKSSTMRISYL

Structure (SMILES) | % Agonist Activity ([1]; Conc 1 uM) [%] | % Antagonist Activity ([1]; Conc 1 uM) [%] | % Agonist Activity ([1]; Conc 10 uM) [%] | % Antagonist Activity ([1]; Conc 10 uM) [%] | % Agonist Activity ([2]; CALCR, 1 uM) [%] | % Antagonist Activity ([2]; CALCR, 1 uM) [%] | % Agonist Activity ([2]; CALCR, 10 uM) [%] | % Antagonist Activity ([2]; CALCR, 10 uM) [%] | % Agonist Activity ([2]; CALCR-RAMP2, 1 uM) [%] | % Antagonist Activity ([2]; CALCR-RAMP2, 1 uM) [%] | % Agonist Activity ([2]; CALCR-RAMP2, 10 uM) [%] | % Antagonist Activity ([2]; CALCR-RAMP2, 10 uM) [%] | % Agonist Activity ([2]; CALCR-RAMP3, 1 uM) [%] | % Antagonist Activity ([2]; CALCR-RAMP3, 1 uM) [%] | % Agonist Activity ([2]; CALCR-RAMP3, 10 uM) [%] | % Antagonist Activity ([2]; CALCR-RAMP3, 10 uM) [%] | % Agonist Activity ([3]; Conc 1 uM) [%] | % Antagonist Activity ([3]; Conc 1 uM) [%] | % Agonist Activity ([3]; Conc 10 uM) [%] | % Antagonist Activity ([3]; Conc 10 uM) [%] | further results
CNC(C)C(=O)c1ccc2c(c1)OCO2 (stereo not shown) [methylone] | 4.5 | -6.2 | 1.9 | -5.7 | -0.3 | 5.4 | -0.2 | -4.4 | 0.9 | -10.6 | 1.6 | -19.6 | 7.9 | -8.9 | 7.1 | -3.3 | 0.7 | 13.2 | 0.3 | 8 | % Agonist Activity ([4]; 1 uM): -1.4%; % Antagonist Activity ([4]; 1 uM): -5.2%; % Agonist Activity ([4]; 10 uM): -1.1%; % Antagonist Activity ([4]; 10 uM): -14%; % Agonist Activity ([5]; NPBWR1, 1 uM): 1.6%; % Antagonist Activity ([5]; NPBWR1, 1 uM): 17.1%; % Agonist Activity ([5]; NPBWR1, 10 uM): -1.9%; % Antagonist Activity ([5]; NPBWR1, 10 uM): 25.1%; % Agonist Activity ([6]; CCR9, 1 uM): -0.5%; % Antagonist Activity ([6]; CCR9, 1 uM): 2.9%; % Agonist Activity ([6]; CCR9, 10 uM): 0.2%; % Antagonist Activity ([6]; CCR9, 10 uM): -9.9%
CNC(C)Cc1ccc2c(c1)OCO2 (stereo not shown) [MDMA, 3,4-Methylenedioxy methamphetamine, reference compound] | 3.5 | 5.2 | 3.6 | 4.2 | -3.5 | -8.1 | -2.4 | 6.8 | -0.3 | 12.8 | 2.9 | 15.7 | -18.3 | -3.6 | -1.4 | -1.3 | 2.9 | 3.7 | 0.1 | -0.9 | % Agonist Activity ([4]; 1 uM): 2.3%; % Antagonist Activity ([4]; 1 uM): -14.5%; % Agonist Activity ([4]; 10 uM): 0.7%; % Antagonist Activity ([4]; 10 uM): -11.7%; % Agonist Activity ([5]; NPBWR1, 1 uM): -10.2%; % Antagonist Activity ([5]; NPBWR1, 1 uM): -7.5%; % Agonist Activity ([5]; NPBWR1, 10 uM): -13.4%; % Antagonist Activity ([5]; NPBWR1, 10 uM): -8.5%; % Agonist Activity ([6]; CCR9, 1 uM): 0.1%; % Antagonist Activity ([6]; CCR9, 1 uM): 5.3%; % Agonist Activity ([6]; CCR9, 10 uM): 0.2%; % Antagonist Activity ([6]; CCR9, 10 uM): 14.5%
